{"source": "patent US20240115729A1", "about": "“COMPOSITIONS AND METHODS FOR TARGETED ANTIFIBROTIC THERAPY IN CHRONIC PANCREATITIS” (University of Virginia Patent Foundation, priority 2021, published 2024)", "key": {"[1]": {"test_system": "caerulein-induced CP mice", "test": "Antifibrotic efficacy of targeted delivery of apigenin in caerulein-induced CP mice (H&E, picrosirius red, fibronectin)", "type": "in vivo, mouse (C57BL/6J)", "settings": "CP mice pancreas after 3-week treatment; free drug 2 mg/kg oral 6 days per week, liposomes 6 mg/kg i.v. twice per week", "description": "Apigenin treatments lasted for 3 weeks for the remaining 3 weeks of caerulein induction. […] Pancreata were perfused, harvested, and paraffin-embedded for immunohistochemistry staining. Livers were perfused, harvested, and partially paraffin-embedded for histology staining. […] Singh et al., 2012). […] The quantification of picrosirius red was determined by Image J, using threshold applied on the red composites of the RGB images. […] Fibronectin expression was quantified using the positive pixel count function on QuPath software (Bankhead et al., 2017). […] Serum alanine aminotransferase (ALT) and blood urea nitrogen (BUN) were determined on […] 8008 Chemistry Analyzer (IDEXX, Westbrook, Maine, United States of America). […] To test the antifibrotic efficacy of targeted liposomes, we evaluated the pharmacodynamics of apigenin in the free drug form, encapsulated in non-targeted liposomes and in ECM liposomes (FIG. 11A). ECM liposomes without drug loading were included in the study as vehicle control. C57BL/6J mice were injected with caerulein 14 days before treatment started to establish inflammation in the pancreas. […] FIGS. 11D and 11G). […] FIGS. 11C and 11F)."}, "[2]": {"settings": "reported on PubChem; cited from earlier work"}}, "data": [{"smiles": "O=c1cc(-c2ccc(O)cc2)oc2cc(O)cc(O)c12", "note": "[Apigenin, 4′,5,7-trihydroxyflavone]", "values": [{"measurement": "collagen deposition (Picrosirius red-positive area)", "setting": "[1]", "result": 24.90, "unit": "% area"}, {"measurement": "Charge (ph 7.4)", "setting": "[2]", "result": 0}, {"measurement": "Log P", "setting": "[2]", "result": 1.7}, {"measurement": "Water Solubility", "setting": "[2]", "result": 183, "unit": "mg/mL"}, {"measurement": "pKa1", "setting": "[2]", "result": 7.12}, {"measurement": "pKa2", "setting": "[2]", "result": 8.10}]}]}
